Measured values from US5767236A, “Linear therapeutic peptides” (Biomeasure, Inc., priority 1995, dated 1998).

Target: T1, GRP receptor (Rattus norvegicus, UniProt P52500)
T1 construct: endogenous in cells; host or cells: rat AR42J pancreatic acinar cells (membrane preparation)
Test: Assay on binding to GRP receptor ([125I-Tyr4]bombesin displacement, AR42J cell membranes)
Settings: for IC50: rat AR42J cell membranes, [125I-Tyr4]bombesin, 30 min, 4° C., read-out: IC50, affinity binding for the GRP receptors; for increase in the affinity for the GRP receptor compared with litorin or Leu-litorin: ratio of IC50 values versus litorin / Leu-litorin
Procedure: Rat AR42J pancreatic acinar cells were cultured in Dulbecco's modified Eagle's medium without antibiotics and supplemented with 10% (vol/vol) fetal calf serum. The incubation atmosphere consisted of 10% C)2 -90% humidified air at 37° C.
Membranes for the bombesin receptor binding assay were obtained by homogenizing AR42J cells (Polytron, setting 6, 15 sec) in ice-cold 50 mM Tris-HCl (Buffer A) and centrifuging twice at 39,000× g (10 min), with an intermediate resuspension in fresh buffer. The final pellets were resuspended in 50 mM Tris-HCl, containing 0.1 mg/ml bacitracin, and 0.1% BSA (Buffer B), and held on ice for the receptor binding assay.
For assay, aliquots (0.4 ml) were incubated with 0.05 ml [^125 I-Tyr^4 ] bombesin (~2200 Ci/mmol, New England Nuclear) and Buffer B, with and without 0.05 ml of unlabeled competing analogs. After a 30 min incubation (4° C.), the bound [^125 I-Tyr^4 ] bombesin was separated from the free by rapid filtration through GF/B filters which had been previously soaked in 0.1% polyethyleneimine. The filters were then washed three times with 5 ml aliquots of ice-cold Buffer A. Specific binding was defined as the total [^125 I-Tyr^4 ] bombesin bound minus that bound in the presence of 1 μM unlabeled bombesin.

T1 sequence (P52500 whole entry): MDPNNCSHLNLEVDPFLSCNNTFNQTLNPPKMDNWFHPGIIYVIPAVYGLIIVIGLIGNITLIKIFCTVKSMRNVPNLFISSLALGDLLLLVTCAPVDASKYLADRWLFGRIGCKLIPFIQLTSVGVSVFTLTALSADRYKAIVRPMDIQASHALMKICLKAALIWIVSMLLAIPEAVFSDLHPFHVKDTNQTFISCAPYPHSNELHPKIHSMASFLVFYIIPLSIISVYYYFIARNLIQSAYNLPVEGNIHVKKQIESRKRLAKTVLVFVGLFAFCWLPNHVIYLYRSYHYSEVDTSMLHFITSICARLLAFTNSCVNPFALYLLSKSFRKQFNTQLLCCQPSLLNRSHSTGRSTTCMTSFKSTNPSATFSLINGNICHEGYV

Q: `CCCC[C@H](NC(=O)[C@H](Cc1ccccc1)NC(=O)[C@H](Cc1c[nH]cn1)NC(=O)CNC(=O)[C@@H](NC(=O)[C@H](C)NC(=O)[C@H](Cc1c[nH]c2ccccc12)NC(=O)[C@H](CCC(N)=O)NC(=O)[C@H](N)Cc1ccc(O)cc1)C(C)C)C(N)=O` [BIM-26270, H--D-Tyr--Gln--Trp--Ala--Val--Gly--His--Phe--Nle--NH2] was tested. Which IC50 did it give?
A: The IC50 was 0.1 nM.

Q: What about the “increase in the affinity for the GRP receptor compared with litorin or Leu-litorin” value (shortened to “increase in the affinity”) of the same molecule?
A: The value was 24 to 230 times.

Q: For `CSCC[C@H](NC(=O)[C@H](Cc1ccccc1)NC(=O)[C@H](Cc1c[nH]cn1)NC(=O)CNC(=O)[C@@H](NC(=O)[C@H](C)NC(=O)[C@H](Cc1c[nH]c2ccccc12)NC(=O)[C@H](CCC(N)=O)NC(=O)[C@H](N)Cc1ccc(O)cc1)C(C)C)C(N)=O` [BIM-26271, H--D-Tyr--Gln--Trp--Ala--Val--Gly--His--Phe--Met--NH2], which IC50 is on record?
A: Its IC50 is 0.5 nM.

Q: What about the “increase in the affinity” value of the same molecule?
A: The value was 5- to 15 times.

Q: Which IC50 does the source give for `CSCC[C@H](NC(=O)[C@H](CC(C)C)NC(=O)[C@H](Cc1c[nH]cn1)NC(=O)CNC(=O)[C@@H](NC(=O)[C@H](C)NC(=O)[C@H](Cc1c[nH]c2ccccc12)NC(=O)[C@H](CCC(N)=O)NC(=O)[C@H](N)Cc1ccc(O)cc1)C(C)C)C(N)=O` [BIM-26274, H--D-Tyr--Gln--Trp--Ala--Val--Gly--His--Leu--Met--NH2] here?
A: Its IC50 is 0.3 nM.

Q: For `CC(C)C[C@H](NC(=O)[C@H](CC(C)C)NC(=O)[C@H](Cc1c[nH]cn1)NC(=O)CNC(=O)[C@@H](NC(=O)[C@H](C)NC(=O)[C@H](Cc1c[nH]c2ccccc12)NC(=O)[C@H](CCC(N)=O)NC(=O)[C@H](N)Cc1ccc(O)cc1)C(C)C)C(N)=O` [BIM-26278, H--D-Tyr--Gln--Trp--Ala--Val--Gly--His--Leu--Leu--NH2], which IC50 is on record?
A: Its IC50 is 1.5 nM.

Q: What about the “increase in the affinity” value of the same molecule?
A: The value was 5- to 15 times.

Q: With `CCCC[C@H](NC(=O)[C@H](CC(C)C)NC(=O)[C@H](Cc1c[nH]cn1)NC(=O)CNC(=O)[C@@H](NC(=O)[C@H](C)NC(=O)[C@H](Cc1c[nH]c2ccccc12)NC(=O)[C@H](CCC(N)=O)NC(=O)[C@H](N)Cc1ccc(O)cc1)C(C)C)C(N)=O` [BIM-26279, H--D-Tyr--Gln--Trp--Ala--Val--Gly--His--Leu--Nle--NH2] as the molecule, how does the IC50 read?
A: The IC50 was 1.7 nM.

Q: Which IC50 does the source give for `CC(C)C[C@H](NC(=O)[C@H](Cc1ccccc1)NC(=O)[C@H](Cc1c[nH]cn1)NC(=O)CNC(=O)[C@@H](NC(=O)[C@H](C)NC(=O)[C@H](Cc1c[nH]c2ccccc12)NC(=O)[C@H](CCC(N)=O)NC(=O)[C@H](N)Cc1ccc(O)cc1)C(C)C)C(N)=O` [BIM-26288, H--D-Tyr--Gln--Trp--Ala--Val--Gly--His--Phe--Leu--NH2] here?
A: The IC50 was 0.7 nM.
